Laboratory results reported in patent US20250263390A1, “NOVEL SUBSTITUTED 6,7-DIHYDRO-5H-BENZO[7]ANNULENE COMPOUNDS AND THEIR DERIVATIVES, PROCESSES FOR THEIR PREPARATION AND THERAPEUTIC USES THEREOF” (SANOFI, priority 2022, published 2025).

Target: T1, ERα (Homo sapiens, UniProt P03372)
T1 construct: host or cells: MCF7
T1 sequence (P03372 1-595): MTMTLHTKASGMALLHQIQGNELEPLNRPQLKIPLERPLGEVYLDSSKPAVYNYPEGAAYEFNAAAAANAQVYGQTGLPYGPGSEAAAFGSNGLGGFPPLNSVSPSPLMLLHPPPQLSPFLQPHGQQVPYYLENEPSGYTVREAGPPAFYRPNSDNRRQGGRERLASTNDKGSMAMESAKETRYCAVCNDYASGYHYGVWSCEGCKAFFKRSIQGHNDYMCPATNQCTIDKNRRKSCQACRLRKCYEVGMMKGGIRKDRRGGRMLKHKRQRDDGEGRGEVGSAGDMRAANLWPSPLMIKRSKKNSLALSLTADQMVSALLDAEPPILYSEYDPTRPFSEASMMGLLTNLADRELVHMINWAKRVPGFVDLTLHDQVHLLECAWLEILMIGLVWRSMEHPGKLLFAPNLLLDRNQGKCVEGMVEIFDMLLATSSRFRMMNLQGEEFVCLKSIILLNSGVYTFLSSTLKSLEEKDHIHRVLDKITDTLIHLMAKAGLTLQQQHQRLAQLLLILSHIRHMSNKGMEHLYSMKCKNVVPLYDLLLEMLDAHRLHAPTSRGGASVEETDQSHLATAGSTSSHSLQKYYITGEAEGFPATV
Assay: Estrogen receptor degradation activity: breast cancer cell ERα in cell western assay
Type: cell-based
Conditions: MCF7 cells, 4 hours, relative to fulvestrant 0.1 μM positive control
Procedure: Test: Estrogen Receptor Degradation Activity Said test involves measuring the in vitro degradation activity of the compounds of the Table 1a. The measurements of the degradation activities were made using a breast cancer cell ERα in cell western assay as described hereunder. MCF7 cells (ATCC) were seeded in 384 wells microplate (collagen coated) at a concentration of 10000 cells/30 μL per well in red phenol free MEM alpha medium (invitrogen) containing 5% charcoal dextran striped FBS. The following day, 9 points serial 1:5 dilution of each compound was added to the cells in 2.5p L at final concentrations ranging from 0.3-0.0000018 μM (in table 2), or 0.1 μM for fulvestrant (using as positive control). At 4 hours post compound addition the cells were fixed by adding 25 μL of formalin (final concentration 5% formalin containing 0.1% triton) for 10 minutes at room temperature and then washed twice with PBS. Then, 50 μL of LI-COR blocking buffer containing 0.1% Triton was added to plate for 30 minutes at room temperature. LI-COR blocking buffer was removed and cells were incubated overnight at cold room with 50 μL anti-ER rabbit monoclonal antibody (Thermo scientific MA1-39540) diluted at 1:1000 in LI-COR blocking buffer containing 0.1% tween-20. Wells which were treated with blocking buffer but no antibody were used as background control. Wells were washed twice with PBS (0.1% tween-20) and incubated at 37° C. for 60 minutes in LI-COR (0.1% tween-20) containing goat anti-rabbit antibody Alexa 488 (1:1000) and Syto-64 a DNA dye (2 μM final concentration). Cells were then washed 3 times in PBS and scanned in ACUMEN explorer (TTP-Labtech). Integrated intensities in the green fluorescence and red fluorescence were measured to determine the levels of ERα and DNA respectively. The degradation activity with respect to estrogen receptors in this test is given by the concentration which degrades 50% of the estrogen receptor (or IC50) in nM. The % of ERα levels decrease were determined as follows: % inhibition=100*(1−(sample−fulvestrant: DMSO−fulvestrant)).

| Structure (SMILES) | % Degradation At 0.3 μM [%] |
| --- | --- |
| Cl.O=C(O)c1ccc2c(c1)CCCC(c1cccc(OC(F)(F)F)c1)=C2c1ccc(CC2CN(CCCF)C2)cc1 [Compound 22, 9-(4-((1-(3-fluoropropyl)azetidin-3-yl)methyl)phenyl)-8-(3-(trifluoromethoxy)phenyl)-6,7-dihydro-5H-benzo[7]annulene-3-carboxylic acid, hydrochloride] | 92 |
| Cc1ccc(C(F)F)c(C2=C(c3ccc(CC4CN(CCCF)C4)cc3)c3ccc(C(=O)O)cc3CCC2)c1 [Compound 23, 8-(2-(difluoromethyl)-5-methylphenyl)-9-(4-((1-(3-fluoropropyl)azetidin-3-yl)methyl)phenyl)-6,7-dihydro-5H-benzo[7]annulene-3-carboxylic acid] | 91 |
| COc1ccc(C2=C(c3ccc(CC4CN(CCCF)C4)cc3)c3ccc(C(=O)O)cc3CCC2)c(C(F)F)c1 [Compound 24, 8-(2-(difluoromethyl)-4-methoxyphenyl)-9-(4-((1-(3-fluoropropyl)azetidin-3-yl)methyl)phenyl)-6,7-dihydro-5H-benzo[7]annulene-3-carboxylic acid] | 92 |
| COc1ccc(C2=C(c3ccc(CC4CN(CCCF)C4)cc3)c3ccc(C(=O)O)cc3CCC2)c(C(F)(F)F)c1.Cl [Compound 25, 9-(4-((1-(3-fluoropropyl)azetidin-3-yl)methyl)phenyl)-8-(4-methoxy-2-(trifluoromethyl)phenyl)-6,7-dihydro-5H-benzo[7]annulene-3-carboxylic acid, hydrochloride] | 92 |
| Cc1cc(C2=C(c3ccc(CC4CN(CCCF)C4)cc3)c3ccc(C(=O)O)cc3CCC2)ccc1C(F)(F)F [Compound 26, 9-(4-((1-(3-fluoropropyl)azetidin-3-yl)methyl)phenyl)-8-(3-methyl-4-(trifluoromethyl)phenyl)-6,7-dihydro-5H-benzo[7]annulene-3-carboxylic acid] | 93 |
| O=C(O)c1ccc2c(c1)CCCC(c1ccc(OC(F)(F)F)cc1)=C2c1ccc(CC2CN(CCCF)C2)cc1 [Compound 27, 9-(4-((1-(3-fluoropropyl)azetidin-3-yl)methyl)phenyl)-8-(4-(trifluoromethoxy)phenyl)-6,7-dihydro-5H-benzo[7]annulene-3-carboxylic acid] | 93 |
| COc1ccc(C(F)(F)F)cc1C1=C(c2ccc(CC3CN(CCCF)C3)cc2)c2ccc(C(=O)O)cc2CCC1.Cl [Compound 28, 9-(4-((1-(3-fluoropropyl)azetidin-3-yl)methyl)phenyl)-8-(2-methoxy-5-(trifluoromethyl)phenyl)-6,7-dihydro-5H-benzo[7]annulene-3-carboxylic acid, hydrochloride] | 80 |
| Cc1ccc(C2=C(c3ccc(CC4CN(CCCF)C4)cc3)c3ccc(C(=O)O)cc3CCC2)cc1C(F)(F)F [Compound 29, 9-(4-((1-(3-fluoropropyl)azetidin-3-yl)methyl)phenyl)-8-(4-methyl-3-(trifluoromethyl)phenyl)-6,7-dihydro-5H-benzo[7]annulene-3-carboxylic acid] | 93 |
| O=C(O)c1ccc2c(c1)CCCC(c1ccccc1OC(F)(F)F)=C2c1ccc(CC2CN(CCCF)C2)cc1 [Compound 30, 9-(4-((1-(3-fluoropropyl)azetidin-3-yl)methyl)phenyl)-8-(2-(trifluoromethoxy)phenyl)-6,7-dihydro-5H-benzo[7]annulene-3-carboxylic acid] | 92 |
| Cc1cc(C2=C(c3ccc(CC4CN(CCCF)C4)cc3)c3ccc(C(=O)O)cc3CCC2)c(C)cc1F [Compound 31, 8-(4-fluoro-2,5-dimethylphenyl)-9-(4-((1-(3-fluoropropyl)azetidin-3-yl)methyl)phenyl)-6,7-dihydro-5H-benzo[7]annulene-3-carboxylic acid] | 92 |
| Cl.O=C(O)c1ccc2c(c1)CCCC(c1ccc(C(F)(F)F)cc1C1CC1)=C2c1ccc(CC2CN(CCCF)C2)cc1 [Compound 32, 8-(2-cyclopropyl-4-(trifluoromethyl)phenyl)-9-(4-((1-(3-fluoropropyl)azetidin-3-yl)methyl)phenyl)-6,7-dihydro-5H-benzo[7]annulene-3-carboxylic acid, hydrochloride] | 91 |
| Cc1cccc(C(F)(F)F)c1C1=C(c2ccc(CC3CN(CCCF)C3)cc2)c2ccc(C(=O)O)cc2CCC1 [Compound 33, 9-(4-((1-(3-fluoropropyl)azetidin-3-yl)methyl)phenyl)-8-(2-methyl-6-(trifluoromethyl)phenyl)-6,7-dihydro-5H-benzo[7]annulene-3-carboxylic acid] | 91 |
| Cc1cc(C2=C(c3ccc(CC4CN(CCCF)C4)cc3)c3ccc(C(=O)O)cc3CCC2)cc(C(F)(F)F)c1.Cl [Compound 34, 9-(4-((1-(3-fluoropropyl)azetidin-3-yl)methyl)phenyl)-8-(3-methyl-5-(trifluoromethyl)phenyl)-6,7-dihydro-5H-benzo[7]annulene-3-carboxylic acid, hydrochloride] | 90 |
| COc1ccc(C(F)(F)F)c(C2=C(c3ccc(CC4CN(CCCF)C4)cc3)c3ccc(C(=O)O)cc3CCC2)c1 [Compound 35, 9-(4-((1-(3-fluoropropyl)azetidin-3-yl)methyl)phenyl)-8-(5-methoxy-2-(trifluoromethyl)phenyl)-6,7-dihydro-5H-benzo[7]annulene-3-carboxylic acid] | 91 |
| C=Cc1c(F)cccc1C1=C(c2ccc(CC3CN(CCCF)C3)cc2)c2ccc(C(=O)O)cc2CCC1 [Compound 36, 8-(3-fluoro-2-vinylphenyl)-9-(4-((1-(3-fluoropropyl)azetidin-3-yl)methyl)phenyl)-6,7-dihydro-5H-benzo[7]annulene-3-carboxylic acid] | 92 |
| CCc1c(F)cccc1C1=C(c2ccc(CC3CN(CCCF)C3)cc2)c2ccc(C(=O)O)cc2CCC1 [Compound 37, 8-(2-ethyl-3-fluorophenyl)-9-(4-((1-(3-fluoropropyl)azetidin-3-yl)methyl)phenyl)-6,7-dihydro-5H-benzo[7]annulene-3-carboxylic acid] | 94 |
| CCc1c(Cl)cccc1C1=C(c2ccc(CC3CN(CCCF)C3)cc2)c2ccc(C(=O)O)cc2CCC1 [Compound 38, 8-(3-chloro-2-ethylphenyl)-9-(4-((1-(3-fluoropropyl)azetidin-3-yl)methyl)phenyl)-6,7-dihydro-5H-benzo[7]annulene-3-carboxylic acid] | 92 |
| O=C(O)c1ccc2c(c1)CCCC(c1ccc(C(F)(F)F)cc1C(F)(F)F)=C2c1ccc(CC2CN(CCCF)C2)cc1 [Compound 39, 8-(2,4-bis(trifluoromethyl)phenyl)-9-(4-((1-(3-fluoropropyl)azetidin-3-yl)methyl)phenyl)-6,7-dihydro-5H-benzo[7]annulene-3-carboxylic acid] | 95 |
| Cc1cccc(Cl)c1C1=C(c2ccc(CC3CN(CCCF)C3)cc2)c2ccc(C(=O)O)cc2CCC1.Cl [Compound 40, 8-(2-chloro-6-methylphenyl)-9-(4-((1-(3-fluoropropyl)azetidin-3-yl)methyl)phenyl)-6,7-dihydro-5H-benzo[7]annulene-3-carboxylic acid, hydrochloride] | 91 |
| Cc1cccc(F)c1C1=C(c2ccc(CC3CN(CCCF)C3)cc2)c2ccc(C(=O)O)cc2CCC1.Cl [Compound 41, 8-(2-fluoro-6-methylphenyl)-9-(4-((1-(3-fluoropropyl)azetidin-3-yl)methyl)phenyl)-6,7-dihydro-5H-benzo[7]annulene-3-carboxylic acid, hydrochloride] | 91 |
| Cc1cc(C2=C(c3ccc(CC4CN(CCCF)C4)cc3)c3ccc(C(=O)O)cc3CCC2)ccc1C(F)F.Cl [Compound 42, 8-(4-(difluoromethyl)-3-methylphenyl)-9-(4-((1-(3-fluoropropyl)azetidin-3-yl)methyl)phenyl)-6,7-dihydro-5H-benzo[7]annulene-3-carboxylic acid, hydrochloride] | 91 |
